Measured values taken from ChEMBL document CHEMBL1649353, “Spectroscopic characterization and antiproliferative activity on HepG2 human hepatoblastoma cells of flavonoid C-glycosides from Petrorhagia velutina” (2010).
Active and inactive are the calls of the source. The rule behind the calls is not given here.

How the values were obtained:
HepG2 [1] = assay: Antiproliferative activity against human HepG2 cells at 25 uM after 48 hrs by MTT assay; type: functional
HepG2 [2] = assay: Antiproliferative activity against human HepG2 cells at 6.25 to 50 uM after 48 hrs by MTT assay; type: functional, cell-based
HepG2 [3] = assay: Antiproliferative activity against human HepG2 cells at 6.25 to 50 uM after 24 hrs by MTT assay; type: functional, cell-based
HepG2 [4] = assay: Antiproliferative activity against human HepG2 cells at 6.25 uM after 24 hrs by MTT assay; type: functional
HepG2 [5] = assay: Antiproliferative activity against human HepG2 cells at 25 uM after 24 hrs by MTT assay; type: functional
HepG2 [6] = assay: Antiproliferative activity against human HepG2 cells at 6.25 uM after 48 hrs by MTT assay; type: functional
HepG2 [7] = assay: Antiproliferative activity against human HepG2 cells at 12.5 uM after 48 hrs by MTT assay; type: functional

SMILES: C[C@@H]1O[C@@H](O[C@@H]2[C@@H](O)[C@H](O)[C@@H](CO)O[C@H]2c2c(O)cc3oc(-c4ccc(O)c(O)c4)cc(=O)c3c2O)[C@H](O)[C@H](O)[C@H]1O
- Activity (HepG2 [1]): 74.9%

SMILES: C[C@@H]1O[C@@H](O[C@@H]2[C@@H](O)[C@@H](O)CO[C@H]2c2c(O)cc3oc(-c4ccc(O)c(O)c4)cc(=O)c3c2O)[C@H](O)[C@H](O)[C@H]1O
- Activity (HepG2 [2]): Active

SMILES: O=C1C[C@@H](c2ccc(O)cc2)Oc2c1c(O)cc(O[C@@H]1O[C@H](CO)[C@@H](O)[C@H](O)[C@H]1O)c2[C@@H]1OC[C@H](O)[C@H](O)[C@H]1O
- Activity (HepG2 [3]): inactive

SMILES: O=c1cc(-c2ccc(O)c(O)c2)oc2cc(O)c([C@@H]3O[C@H](CO)[C@@H](O)[C@H](O)[C@H]3O)c(O)c12 [ISOORIENTIN]
- Activity (HepG2 [4]): 19.6%
- Activity (HepG2 [5]): 26.1%
- Activity (HepG2 [6]): 84%
- Activity (HepG2 [7]): 92%
